Assay results: ChEMBL document CHEMBL3864159, “Variation of the aryl substituent on the piperazine ring within the 4-(piperazin-1-yl)-2,6-di(pyrrolidin-1-yl)pyrimidine scaffold unveils potent, non-competitive inhibitors of the inflammatory caspases” (Bioorg Med Chem Lett, 2016)

What was measured:
Caspase-4 = molecular target: T1, Caspase-4 (Homo sapiens, UniProt P49662); experiment: Inhibition of human recombinant N-terminal His-tagged DTT-activated caspase-4 expressed in Escherichia coli using Ac-LEVD-AMC as substrate preincubated for 30 mins followed by substrate addition by fluorescence assay
T1 sequence (P49662 whole entry): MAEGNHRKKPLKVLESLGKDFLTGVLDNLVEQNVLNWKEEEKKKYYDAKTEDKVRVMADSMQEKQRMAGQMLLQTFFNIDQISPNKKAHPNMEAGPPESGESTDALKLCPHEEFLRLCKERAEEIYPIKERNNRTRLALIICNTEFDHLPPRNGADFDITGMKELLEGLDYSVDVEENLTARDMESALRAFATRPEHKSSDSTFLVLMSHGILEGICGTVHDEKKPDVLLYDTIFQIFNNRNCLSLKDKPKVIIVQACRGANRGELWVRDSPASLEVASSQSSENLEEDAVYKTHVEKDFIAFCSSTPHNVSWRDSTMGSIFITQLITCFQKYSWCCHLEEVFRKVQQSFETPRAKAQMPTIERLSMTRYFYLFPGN

Caspase-5 [1] = molecular target: T2, Caspase-5 (Homo sapiens, UniProt P51878); experiment: Inhibition of human recombinant DTT-activated caspase-5 expressed in Escherichia coli using Ac-WEHD-AMC as substrate preincubated for 30 mins followed by substrate addition by fluorescence assay
T2 sequence (P51878 whole entry): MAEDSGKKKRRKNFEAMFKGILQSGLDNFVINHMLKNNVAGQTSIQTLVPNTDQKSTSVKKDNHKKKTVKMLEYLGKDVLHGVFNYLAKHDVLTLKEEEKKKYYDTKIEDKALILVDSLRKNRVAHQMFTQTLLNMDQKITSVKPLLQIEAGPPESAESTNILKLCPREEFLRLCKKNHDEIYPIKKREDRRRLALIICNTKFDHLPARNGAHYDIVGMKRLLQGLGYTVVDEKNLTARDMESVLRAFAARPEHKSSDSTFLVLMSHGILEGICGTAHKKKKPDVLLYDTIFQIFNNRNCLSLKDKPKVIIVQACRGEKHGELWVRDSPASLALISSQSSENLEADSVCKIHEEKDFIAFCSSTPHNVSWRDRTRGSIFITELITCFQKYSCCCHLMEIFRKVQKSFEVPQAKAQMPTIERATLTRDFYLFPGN

Caspase-1 [2] = molecular target: T3, Caspase-1 (Homo sapiens, UniProt P29466); experiment: Inhibition of human recombinant N-terminal His-tagged DTT-activated caspase-1 expressed in Escherichia coli using Ac-WEHD-AMC as substrate preincubated for 30 mins followed by substrate addition by fluorescence assay
T3 sequence (P29466 whole entry): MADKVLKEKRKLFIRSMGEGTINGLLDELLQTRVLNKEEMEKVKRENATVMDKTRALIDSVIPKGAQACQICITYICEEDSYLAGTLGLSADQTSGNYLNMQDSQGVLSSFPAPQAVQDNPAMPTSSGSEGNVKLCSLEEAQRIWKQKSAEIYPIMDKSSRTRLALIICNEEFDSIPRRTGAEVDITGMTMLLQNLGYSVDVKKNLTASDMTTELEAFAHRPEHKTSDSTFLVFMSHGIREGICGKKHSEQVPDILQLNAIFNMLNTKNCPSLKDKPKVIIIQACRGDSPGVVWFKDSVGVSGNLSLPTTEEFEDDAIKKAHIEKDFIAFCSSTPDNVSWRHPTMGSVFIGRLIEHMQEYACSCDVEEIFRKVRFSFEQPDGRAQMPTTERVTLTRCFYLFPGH

Caspase-1 [3] = molecular target: T3, Caspase-1; experiment: Inhibition of human recombinant DTT-activated caspase-1 expressed in Escherichia coli using WEHD-AMC as substrate after 30 mins by fluorescence assay; conditions: read-out: Ki(app)
Caspase-5 [4] = molecular target: T2, Caspase-5; experiment: Inhibition of human recombinant DTT-activated caspase-5 expressed in Escherichia coli using Ac-WEHD-AMC as substrate preincubated for 45 mins followed by substrate addition by fluorescence assay
Caspase-5 [5] = molecular target: T2, Caspase-5; experiment: Inhibition of human recombinant DTT-activated caspase-5 expressed in Escherichia coli using Ac-WEHD-AMC as substrate preincubated for 15 mins followed by substrate addition by fluorescence assay

SMILES | IC50 (Caspase-4) | Ki (Caspase-4) | IC50 (Caspase-5 [1]) | Ki (Caspase-5 [1]) | IC50 (Caspase-1 [2]) | Ki (Caspase-1 [2]) | IC50 (Caspase-5 [4]) | IC50 (Caspase-5 [5]) | Ki (Caspase-1 [3])
C[C@]12C=CC(=O)C=C1CC[C@@H]1C2=CC[C@]2(C)[C@@H](C(=O)CN3CCN(c4cc(N5CCCC5)nc(N5CCCC5)n4)CC3)CC[C@@H]12 | 909 nM | 337 nM | 910 nM | 210 nM | – | 50 nM | – | – | 50 nM
COc1cc(CN2CCN(c3cc(N4CCCC4)nc(N4CCCC4)n3)CC2)cc(OC)c1 | 400 nM | 148 nM | 149 nM | 34 nM | 173 nM | 49 nM | – | – | –
O=[N+]([O-])c1ccccc1CN1CCN(c2cc(N3CCCC3)nc(N3CCCC3)n2)CC1 | 721 nM | 267 nM | 105 nM | 24 nM | 796 nM | 227 nM | – | – | –
FC(F)(F)c1ccc(CN2CCN(c3cc(N4CCCC4)nc(N4CCCC4)n3)CC2)cc1 | 1520 nM | 563 nM | 586 nM | 135 nM | 639 nM | 183 nM | – | – | –
O=C(c1ccccc1)c1ccc(CN2CCN(c3cc(N4CCCC4)nc(N4CCCC4)n3)CC2)cc1 | 320 nM | 119 nM | 123 nM | 28 nM | 205 nM | 59 nM | – | – | –
O=[N+]([O-])c1ccc(CN2CCN(c3cc(N4CCCC4)nc(N4CCCC4)n3)CC2)cc1 | 580 nM | 215 nM | 430 nM | 99 nM | 450 nM | 129 nM | – | – | –
FC(F)(F)c1cc(CN2CCN(c3cc(N4CCCC4)nc(N4CCCC4)n3)CC2)cc(C(F)(F)F)c1 | > 5000 nM | – | 210 nM | 48 nM | 706 nM | 202 nM | – | – | –

Second part, led by results:

IC50 (Caspase-4) | Ki (Caspase-4) | IC50 (Caspase-5 [1]) | Ki (Caspase-5 [1]) | IC50 (Caspase-1 [2]) | Ki (Caspase-1 [2]) | IC50 (Caspase-5 [4]) | IC50 (Caspase-5 [5]) | SMILES | Ki (Caspase-1 [3])
21 nM | 8 nM | 71 nM | 16 nM | 56 nM | 16 nM | – | – | c1ccc(CCN2CCN(c3cc(N4CCCC4)nc(N4CCCC4)n3)CC2)cc1 | –
746 nM | 276 nM | 482 nM | 111 nM | 262 nM | 75 nM | – | – | COc1cccc(CN2CCN(c3cc(N4CCCC4)nc(N4CCCC4)n3)CC2)c1 | –
2350 nM | 870 nM | 254 nM | 59 nM | 1870 nM | 534 nM | 155 nM | 2560 nM | c1cncc(CN2CCN(c3cc(N4CCCC4)nc(N4CCCC4)n3)CC2)c1 | –
1060 nM | 393 nM | 146 nM | 34 nM | 1060 nM | 303 nM | – | – | c1cc(CN2CCN(c3cc(N4CCCC4)nc(N4CCCC4)n3)CC2)ccn1 | –
560 nM | 207 nM | 205 nM | 47 nM | 455 nM | 130 nM | – | – | c1c(N2CCCC2)nc(N2CCCC2)nc1N1CCNCC1 | –
> 5000 nM | – | 178 nM | 41 nM | 700 nM | 200 nM | – | – | c1ccc(CN2CCN(c3cc(N4CCCC4)nc(N4CCCC4)n3)CC2)cc1 | –
826 nM | 306 nM | 254 nM | 59 nM | 95 nM | 27 nM | – | – | c1c(N2CCCC2)nc(N2CCCC2)nc1N1CCN(CC2CCCCC2)CC1 | –
